Key:
[1] = tested on: blackgrass; experiment: Test C postemergence; assay type: in vivo, Alopecurus myosuroides; conditions: for Plant response rating (scale of 0 to 100 where 0 is no effect and 100 is complete control), Blackgrass: visually evaluated after 13 to 15 days; for Blackgrass plant response rating: scale 0 to 100
How it was run: (§1)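 Visual rating, 0–100 scale (0 no effect, 100 complete control), vs untreated controls after 13–15 d greenhouse. Pre: seeds in loam/sand, treated at sowing. Post: plants in peat-based mix, 1- to 4-leaf (2–18 cm). Solvent + surfactant formulation, non-phytotoxic.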

[2] = tested on: pigweed; experiment: Test C postemergence; assay type: in vivo, Amaranthus retroflexus; conditions: for Pigweed plant response rating: scale 0 to 100
How it was run: as §1

[3] = tested on: rice; experiment: Test B flood; assay type: in vivo, Oryza sativa; conditions: 250 g ai/ha, visual rating on 0 to 100 scale (0 no effect, 100 complete control), 13 to 15 days
How it was run: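 Visual ratings (0 = no effect, 100 = complete control) versus untreated controls were taken 13–15 days after treatment of greenhouse plants. Treatment was added to paddy water held at 3 cm depth on 2-leaf-stage seedlings.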

[4] = tested on: nutsedge, yellow; experiment: Test C postemergence; assay type: in vivo, Cyperus esculentus; conditions: for Plant response rating (scale of 0 to 100 where 0 is no effect and 100 is complete control), Nutsedge, Yellow: visually evaluated after 13 to 15 days; for Nutsedge, Yellow plant response rating: scale 0 to 100
How it was run: as §1

[5] = tested on: ragweed; experiment: Test C postemergence; assay type: in vivo, Ambrosia elation; conditions: postemergence
How it was run: as §1

[6] = tested on: crabgrass, large; experiment: Test A preemergence; assay type: in vivo, Digitaria sanguinalis; conditions: for Crabgrass, Large plant response rating (0 to 100 scale): 125 g ai/ha, visual injury approx. 10 days after treatment
How it was run: (§2)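 Pre- and postemergence greenhouse test; loam+sand; cpd in non-phytotox. solvent/surfactant; post at 1–2 leaf, 2–10 cm; visual score ~10 d, 0 = none, 100 = complete control.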

[7] = tested on: foxtail, giant; experiment: Test A preemergence; assay type: in vivo, Setaria faberii; conditions: for Foxtail, Giant plant response rating (0 to 100 scale): 125 g ai/ha, visual injury approx. 10 days after treatment
How it was run: as §2

[8] = tested on: corn; experiment: Test C preemergence; assay type: in vivo, Zea mays; conditions: for Corn plant response rating / Plant response rating, Corn: preemergence; for Plant response rating, Corn: scale 0 to 100, 0 = no effect, 100 = complete control
How it was run: as §1

[9] = tested on: wheat; experiment: Test A preemergence; assay type: in vivo, Triticum aestivum; conditions: for Wheat plant response rating (0 to 100 scale): 125 g ai/ha, visual injury approx. 10 days after treatment
How it was run: as §2

[10] = tested on: pigweed; experiment: Test A postemergence; assay type: in vivo, Amaranthus retroflexus; conditions: Postemergence
How it was run: as §2

[11] = tested on: corn; experiment: Test A postemergence; assay type: in vivo, Zea mays
How it was run: as §2

[12] = tested on: ragweed; experiment: Test C preemergence; assay type: in vivo, Ambrosia elation; conditions: for Ragweed plant response rating / Plant response rating, Ragweed: preemergence; for Plant response rating, Ragweed: scale 0 to 100, 0 = no effect, 100 = complete control
How it was run: as §1

[13] = tested on: galium; experiment: Test C preemergence; assay type: in vivo, Galium aparine; conditions: for Galium plant response rating / Plant response rating, Galium: preemergence; for Plant response rating, Galium: scale 0 to 100, 0 = no effect, 100 = complete control
How it was run: as §1

[14] = tested on: velvetleaf; experiment: Test A preemergence; assay type: in vivo, Abutilon theophrasti; conditions: for Velvetleaf plant response rating (0 to 100 scale): 125 g ai/ha, visual injury approx. 10 days after treatment
How it was run: as §2

[15] = postemergence, 250 g ai/ha, scale 0 to 100 (0 no effect, 100 complete control)
[16] = postemergence, 125 g ai/ha, scale 0 to 100, 0 no effect, 100 complete control
[17] = 250 g ai/ha, scale 0 to 100 (0 no effect, 100 complete control)
[18] = 125 g ai/ha, scale 0 to 100, 0 no effect, 100 complete control
[19] = preemergence, 500 g ai/ha, visual injury after approx. 10 days, 0 to 100 scale (0 no effect, 100 complete control)
[20] = 31 g ai/ha, visual rating, scale 0 to 100 (0 no effect, 100 complete control), 13 to 15 days
[21] = 62 g ai/ha, scale 0 to 100 (0 no effect, 100 complete control), 13 to 15 days
[22] = 250 g ai/ha, scale 0 to 100, 0 is no effect, 100 is complete control
[23] = 125 g ai/ha, 0 to 100 scale, 0 no effect, 100 complete control
[24] = 500 g ai/ha, 0 to 100 scale (0 no effect, 100 complete control)
[25] = Postemergence, 500 g ai/ha, 0 to 100 scale (0 no effect, 100 complete control)
[26] = postemergence, 125 g ai/ha, about 10 days, visual rating on 0 to 100 scale (0 no effect, 100 complete control)
[27] = Preemergence, 1000 g ai/ha, 0 to 100 scale, 0 no effect, 100 complete control
[28] = 31 g ai/ha, scale 0 to 100 (0 no effect, 100 complete control), 13 to 15 days
[29] = 125 g ai/ha, scale 0 to 100, 0 is no effect, 100 is complete control

## CCCNC(=O)c1cc(OCC)n(Cc2ccnc(C(F)(F)F)c2)n1 [Compound 187]
[1]; Postemergence, 31 g ai/ha
  Plant response rating (scale of 0 to 100 where 0 is no effect and 100 is complete control), Blackgrass: 10
[1]; postemergence, 62 g ai/ha
  Blackgrass plant response rating: 5
[1]; [15]
  Plant response rating, Blackgrass: 80
[1]; [16]
  Plant response rating, Blackgrass: 30
[2]; postemergence, 62 g ai/ha
  Pigweed plant response rating: 50
[2]; [15]
  Plant response rating, Pigweed: 75
[2]; [16]
  Plant response rating, Pigweed: 60
[3]
  Plant response rating, Rice: 45
[4]; Postemergence, 31 g ai/ha
  Plant response rating (scale of 0 to 100 where 0 is no effect and 100 is complete control), Nutsedge, Yellow: 5
[4]; postemergence, 62 g ai/ha
  Nutsedge, Yellow plant response rating: 5
[4]; [15]
  Plant response rating, Nutsedge, Yellow: 10
[4]; [16]
  Plant response rating, Nutsedge, Yellow: 5
[5]; [17]
  Plant response rating, Ragweed: 85
[5]; [18]
  Plant response rating, Ragweed: 50
[6]; preemergence
  Crabgrass, Large plant response rating (0 to 100 scale): 100
[6]; [19]
  Crabgrass, Large plant response rating: 100
[7]; preemergence
  Foxtail, Giant plant response rating (0 to 100 scale): 100
[7]; [19]
  Foxtail, Giant plant response rating: 100
[8]; [20]
  Corn plant response rating: 20
[8]; [21]
  Corn plant response rating: 85
[8]; 125 g ai/ha, 13 to 15 days
  Plant response rating, Corn: 95
[8]; [22]
  Corn plant response rating: 98
[9]; preemergence
  Wheat plant response rating (0 to 100 scale): 80
[9]; [19]
  Wheat plant response rating: 100
[10]; [23]
  Pigweed plant response rating: 100
[10]; [24]
  Pigweed plant response rating: 90
[11]; [25]
  Corn plant response rating: 100
[11]; [26]
  Corn plant response rating: 80
[12]; [20]
  Ragweed plant response rating: 80
[12]; [21]
  Ragweed plant response rating: 100
[12]; 125 g ai/ha, 13 to 15 days
  Plant response rating, Ragweed: 98
[12]; [22]
  Ragweed plant response rating: 100
[13]; [20]
  Galium plant response rating: 90
[13]; [21]
  Galium plant response rating: 95
[13]; 125 g ai/ha, 13 to 15 days
  Plant response rating, Galium: 95
[13]; [22]
  Galium plant response rating: 98
[14]; preemergence
  Velvetleaf plant response rating (0 to 100 scale): 100
[14]; [19]
  Velvetleaf plant response rating: 100

## CCCc1cc(C(=O)NC2CC2)nn1Cc1cc(C(F)(F)F)nn1C [Compound 202]
[1]; Postemergence, 31 g ai/ha
  Plant response rating (scale of 0 to 100 where 0 is no effect and 100 is complete control), Blackgrass: 5
[1]; postemergence, 62 g ai/ha
  Blackgrass plant response rating: 10
[1]; [15]
  Plant response rating, Blackgrass: 30
[1]; [16]
  Plant response rating, Blackgrass: 20
[2]; postemergence, 62 g ai/ha
  Pigweed plant response rating: 80
[2]; [15]
  Plant response rating, Pigweed: 95
[2]; [16]
  Plant response rating, Pigweed: 90
[3]
  Plant response rating, Rice: 30
[4]; Postemergence, 31 g ai/ha
  Plant response rating (scale of 0 to 100 where 0 is no effect and 100 is complete control), Nutsedge, Yellow: 0
[4]; postemergence, 62 g ai/ha
  Nutsedge, Yellow plant response rating: 5
[4]; [15]
  Plant response rating, Nutsedge, Yellow: 20
[4]; [16]
  Plant response rating, Nutsedge, Yellow: 10
[5]; [17]
  Plant response rating, Ragweed: 80
[5]; [18]
  Plant response rating, Ragweed: 65
[6]; preemergence
  Crabgrass, Large plant response rating (0 to 100 scale): 100
[6]; [19]
  Crabgrass, Large plant response rating: 100
[7]; preemergence
  Foxtail, Giant plant response rating (0 to 100 scale): 100
[7]; [19]
  Foxtail, Giant plant response rating: 100
[8]; [20]
  Corn plant response rating: 5
[8]; [21]
  Corn plant response rating: 35
[8]; 125 g ai/ha, 13 to 15 days
  Plant response rating, Corn: 60
[8]; [22]
  Corn plant response rating: 95
[9]; preemergence
  Wheat plant response rating (0 to 100 scale): 30
[9]; [19]
  Wheat plant response rating: 100
[10]; [23]
  Pigweed plant response rating: 100
[10]; [24]
  Pigweed plant response rating: 100
[11]; [25]
  Corn plant response rating: 90
[11]; [26]
  Corn plant response rating: 80
[12]; [20]
  Ragweed plant response rating: 75
[12]; [21]
  Ragweed plant response rating: 95
[12]; 125 g ai/ha, 13 to 15 days
  Plant response rating, Ragweed: 95
[12]; [22]
  Ragweed plant response rating: 100
[13]; [20]
  Galium plant response rating: 98
[13]; [21]
  Galium plant response rating: 100
[13]; 125 g ai/ha, 13 to 15 days
  Plant response rating, Galium: 100
[13]; [22]
  Galium plant response rating: 100
[14]; preemergence
  Velvetleaf plant response rating (0 to 100 scale): 30
[14]; [19]
  Velvetleaf plant response rating: 100

## Cc1cc(C(=O)NCC(F)(F)F)nn1Cc1ccnc(C(F)(F)F)c1 [Compound 74]
[1]; Postemergence, 31 g ai/ha
  Blackgrass plant response rating: 0
[1]; postemergence, 62 g ai/ha
  Blackgrass plant response rating: 0
[1]; [15]
  Plant response rating, Blackgrass: 5
[1]; [16]
  Plant response rating, Blackgrass: 5
[2]; Postemergence, 31 g ai/ha
  Pigweed plant response rating: 60
[2]; postemergence, 62 g ai/ha
  Pigweed plant response rating: 65
[2]; [15]
  Plant response rating, Pigweed: 80
[2]; [16]
  Plant response rating, Pigweed: 80
[3]
  Plant response rating, Rice: 0
[4]; Postemergence, 31 g ai/ha
  Nutsedge, Yellow plant response rating: 0
[4]; postemergence, 62 g ai/ha
  Nutsedge, Yellow plant response rating: 5
[4]; [15]
  Plant response rating, Nutsedge, Yellow: 15
[4]; [16]
  Plant response rating, Nutsedge, Yellow: 5
[5]; 62 g ai/ha, scale 0 to 100
  Ragweed plant response rating: 45
[5]; [17]
  Plant response rating, Ragweed: 70
[6]; [27]
  Crabgrass, Large plant response rating: 100
[7]; [27]
  Foxtail, Giant plant response rating: 100
[8]; Preemergence, 250 g ai/ha
  Plant response rating (scale of 0 to 100), Corn: 98
[8]; [28]
  Corn plant response rating: 10
[8]; 62 g ai/ha, 13 to 15 days
  Plant response rating, Corn: 60
[8]; [29]
  Corn plant response rating: 75
[9]; [27]
  Wheat plant response rating: 100
[9]; [19]
  Wheat plant response rating: 30
[10]; 1000 g ai/ha, visual rating after approx. 10 days, 0 to 100 scale (0 no effect, 100 complete control)
  Pigweed plant response rating: 100
[11]; Postemergence, 1000 g ai/ha, visual rating after approx. 10 days, 0 to 100 scale (0 no effect, 100 complete control)
  Corn plant response rating: 100
[12]; Preemergence, 250 g ai/ha
  Plant response rating (scale of 0 to 100), Ragweed: 90
[12]; [28]
  Ragweed plant response rating: 30
[12]; 62 g ai/ha, 13 to 15 days
  Plant response rating, Ragweed: 60
[12]; [29]
  Ragweed plant response rating: 80
[13]; Preemergence, 250 g ai/ha
  Plant response rating (scale of 0 to 100), Galium: 100
[13]; [28]
  Galium plant response rating: 85
[13]; 62 g ai/ha, 13 to 15 days
  Plant response rating, Galium: 100
[13]; [29]
  Galium plant response rating: 100
[14]; [27]
  Velvetleaf plant response rating: 100

— patent publication US20150105252A1, “SUBSTITUTED PYRAZOLES AS HERBICIDES” (E I DU PONT DE NEMOURS AND COMPANY, priority 2013, published 2015)
